Data published in patent US7312330B2, “Bicycloheteroarylamine compounds as ion channel ligands and uses thereof” (Renovis, Inc., priority 2003, dated 2007).

Assays:
HsVR1 = biological target: T1, HsVR1 (Homo sapiens, UniProt Q8NER1); test: Two-electrode voltage clamp recording of capsaicin induced VR1 current in Xenopus oocytes; assay type: cell-based; conditions: 250 nM capsaicin induced current; Xenopus oocytes injected with HsVR1 RNA; read-out: EPHYS IC50
T1 construct: expressed in transfected cells; host or cells: Xenopus oocytes injected with HsVR1 RNA
Protocol: Xenopus ovaries obtained from NASCO were isolated by enzymatic dissociation using collagenase (Worthington, 2 mg/ml). Oocytes were then individually injected with HsVR1 RNA (0.5 μg/μl). Injected oocytes are stored in standard oocyte incubation solution, ND96, containing 96 mM NaCl, 2 mM KCl, 1 mM MgCl2, 0.3 mM CaCl2 and 50 µg/ml Gentamicin at 16° C. Capsaicin induced VR1 current is observed in oocytes 4-5 days after injection. Eight oocytes are placed in the recording chambers. Each oocyte is impaled by 2 glass electrodes having resistances of 0.5 to 1 MOhm when filled with a 3 M KCl solution. Electrode advancement and oocyte impalement are under software control (OpusXpress 1.1, Axon Instruments). VR1 expression in the oocytes is verified using 250 nM capsaicin. Test solution delivery to the oocytes during the experiment is also under software control. The solutions are prepared in 96 well plates and robotically pipetted into the oocyte recording chambers by an 8 channel pipetter. Oocytes are exposed to several 250 μl applications of 250 nM capsaicin until a stable current amplitude is obtained with each application. A set of 96 well plates containing the test solutions is prepared so that the sequence of solution application to the oocyte is as follows: 250 μls of 250 nM capsaicin is followed by a several minute wash with standard oocyte saline. 1 ml of the test compound is then added at a particular test concentration, followed immediately by 250 μl of the compound at the same concentration plus 250 nM capsaicin. The capsaicin induced VR1 current is recorded in the presence and absence of test compound for each concentration. The standard test concentrations range from 0.3 to 2000 nM. Quantitative measurement of VR1 current block was carried out by calculating the area under the curve described by the inward current. The resulting numbers for capsaicin induced currents in the presence of increasing compound concentration are normalized to the maximum current obtained. These points are then plotted on a logarithmic scale and fitted by a Hill function. The IC50 values for each compound tested were then calculated from the resulting Hill fit. All compounds that inhibited capsaicin induced current greater than 50% were considered positives.

hVR1 = hVR1 (Homo sapiens, UniProt Q8NER1); test: Calcium imaging assay (Fura2) of VR1 antagonists, proton stimulation; assay type: cell-based; conditions: HEK 293 cells expressing hVR1; for % Inhibition @ 1 μM: calcium ion influx induced by proton stimulation (pH 5.7); for IC50: calcium ion influx induced by proton stimulation
Procedure, shortened: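 HEK293 cells expressing capsaicin-insensitive hVR1 were loaded with Fura2 (5 μg/mL, 37 °C, 40 min). Compound was added, then compound plus acid agonist (10 mM citric acid, pH 5.7), with the 340/380 nm ratio read every 4 s for 3 min. Peak-minus-baseline response gave % inhibition and an ID50 from dose-response curves.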

[1] = Pharmacokinetic profile after intravenous and oral administration; assay type: in vivo; conditions: rat, IV 1 mg/kg, oral 5 mg/kg; for Cmax / Tmax / Vd / bioavailability: male, Sprague-Dawley, plasma
Protocol: The pharmacokinetic profile of Compound 1 was evaluated following intravenous and oral administration in rats. Sprague-Dawley male rats obtained from Charles River, San Diego, Calif. were acclimated for 24 hours.
Compounds of this invention were formulated at a concentration of 0.5 mg/mL for IV administration at a 1 mg/kg dose and 1 mg/mL for oral administration at a 5 mg/kg dose. All animals were weighed before dosing. The body weight was used to calculate the actual dose for each animal. The intravenous dose was administered through the jugular vein catheter in less than 1 minute. The oral dose volume was 1.5 mL for all PO rats administered through oral lavage.
For IV dosing, blood samples were collected using a pre-heparinized syringe via the carotid artery catheter before dosing and at t=2, 5, 15, 30, 60, 120, 180, 360, and 480 minutes post dosing. For PO dosing, blood samples were collected using a pre-heparinized syringe via the carotid artery catheter before dosing and at t=5, 15, 30, 60, 120, 180, 360, and 480 minutes post dosing. 250 uL of blood was obtained at each time point from each animal. Equal volumes of 0.9% normal saline were replaced to prevent dehydration. The whole blood samples were maintained on ice until centrifugation. Blood samples were centrifuged at 14,000 rpm for 10 minutes at 4° C., and the upper plasma layer was transferred into a clean vial and store at −80° C.

T1 sequence (Q8NER1 whole entry): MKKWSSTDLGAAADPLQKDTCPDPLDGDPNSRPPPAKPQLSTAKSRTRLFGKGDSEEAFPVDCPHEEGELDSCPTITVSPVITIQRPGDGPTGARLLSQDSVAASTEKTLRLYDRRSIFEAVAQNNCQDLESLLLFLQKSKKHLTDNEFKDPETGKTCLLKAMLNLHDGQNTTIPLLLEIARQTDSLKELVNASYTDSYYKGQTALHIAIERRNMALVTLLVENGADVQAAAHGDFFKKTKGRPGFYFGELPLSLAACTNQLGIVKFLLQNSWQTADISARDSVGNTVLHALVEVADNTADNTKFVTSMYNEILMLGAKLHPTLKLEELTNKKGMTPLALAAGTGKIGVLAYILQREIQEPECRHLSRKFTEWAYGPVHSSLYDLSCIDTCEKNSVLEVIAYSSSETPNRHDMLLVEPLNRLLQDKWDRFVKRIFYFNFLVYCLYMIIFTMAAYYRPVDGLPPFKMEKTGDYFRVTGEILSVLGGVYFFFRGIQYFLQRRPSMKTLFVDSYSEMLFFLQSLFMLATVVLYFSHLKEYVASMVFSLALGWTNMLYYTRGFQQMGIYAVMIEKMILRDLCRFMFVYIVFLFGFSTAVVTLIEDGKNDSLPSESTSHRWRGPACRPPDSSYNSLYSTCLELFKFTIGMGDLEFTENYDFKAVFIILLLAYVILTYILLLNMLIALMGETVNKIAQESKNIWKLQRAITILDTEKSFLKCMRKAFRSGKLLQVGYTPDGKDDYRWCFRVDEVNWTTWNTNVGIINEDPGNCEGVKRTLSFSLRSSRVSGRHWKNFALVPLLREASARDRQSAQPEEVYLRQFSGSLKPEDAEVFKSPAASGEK
hVR1, sequence (Q8NER1 whole entry): as above

| SMILES | IC50 (HsVR1) | IC50 (hVR1) | Cmax [1] | Tmax [1] | Vd [1] | bioavailability [1] | Cls (L/hrKg) [1] | T/2 [1] | % Inhibition @ 1 μM (hVR1) |
| --- | --- | --- | --- | --- | --- | --- | --- | --- | --- |
| FC(F)(F)c1ccc(Nc2ncnc3c2CCN(c2ncccc2Cl)C3)cn1 [Example 20] | 101 to 500 nM | 101 to 500 nM | – | – | – | – | – | – | ++++ (compound exhibited 76% or greater inhibition of calcium ion influx induced by proton stimulation) |
| COCc1nc2c(c(Nc3ccc(C(C)(C)C)cc3)n1)CCN(c1ncccc1Cl)C2.Cl [Example 5, N-(4-tert-Butylphenyl)-7-(3-chloropyridin-2-yl)-5,6,7,8-tetrahydro-2-(methoxymethyl)pyrido[3,4-d]pyrimidin-4-amine hydrochloride] | < 100 nM | < 100 nM | – | – | – | – | – | – | ++++ (compound exhibited 76% or greater inhibition of calcium ion influx induced by proton stimulation) |
| CC(C)(C)c1ccc(Nc2ncnc3c2CCN(c2ncccc2S(C)(=O)=O)C3)cc1 [Example 8, (4-tert-Butyl-phenyl)-[7-(3-methanesulfonyl-pyridin-2-yl)-5,6,7,8-tetrahydro-pyrido[3,4-d]pyrimidin-4-yl]-amine] | 101 to 500 nM | 101 to 500 nM | – | – | – | – | – | – | ++++ (compound exhibited 76% or greater inhibition of calcium ion influx induced by proton stimulation) |
| Cc1ccccc1N1CCc2c(ncnc2Nc2ccc(C(F)(F)F)cc2)C1 [Example 45, 7-(o-Tolyl)-N-(4-(trifluoromethyl)phenyl)-5,6,7,8-tetrahydropyrido[3,4-d]pyrimidin-4-amine] | < 100 nM | < 100 nM | – | – | – | – | – | – | ++++ (compound exhibited 76% or greater inhibition of calcium ion influx induced by proton stimulation) |
| Clc1cccnc1N1CCc2c(ncnc2NCCc2ccccc2)C1 [Example 39, 7-(3-Chloropyridin-2-yl)-5,6,7,8-tetrahydro-N-phenethylpyrido[3,4-d]pyrimidin-4-amine] | > 1000 nM | 101 to 500 nM | – | – | – | – | – | – | ++++ (compound exhibited 76% or greater inhibition of calcium ion influx induced by proton stimulation) |
| CC(C)(C)c1ccc(Nc2ncnc3c2CCN(c2ncccc2Cl)C3)cc1.Cl [Example 3, N-(4-tert-Butylphenyl)-7-(3-chloropyridin-2-yl)-5,6,7,8-tetrahydropyrido[3,4-d]pyrimidin-4-amine hydrochloride] | < 100 nM | < 100 nM | – | – | – | – | – | – | ++++ (compound exhibited 76% or greater inhibition of calcium ion influx induced by proton stimulation) |

Continued, in another order:

| IC50 (HsVR1) | IC50 (hVR1) | Cmax [1] | Tmax [1] | Vd [1] | bioavailability [1] | Cls (L/hrKg) [1] | T/2 [1] | SMILES | % Inhibition @ 1 μM (hVR1) |
| --- | --- | --- | --- | --- | --- | --- | --- | --- | --- |
| 101 to 500 nM | 101 to 500 nM | 1380 ng/mL | 1.01 h | 1.28 L/kg | 37% | 0.34 L/hrKg | 2.52 h | FC(F)(F)c1ccc(Nc2ncnc3c2CCN(c2ncccc2Cl)C3)cc1 [Example 1, 7-(3-Chloropyridin-2-yl)-N-(4-(trifluoromethyl)phenyl)-5,6,7,8-tetrahydropyrido[3,4-d]pyrimidin-4-amine] | ++++ (compound exhibited 76% or greater inhibition of calcium ion influx induced by proton stimulation) |
| 101 to 500 nM | 101 to 500 nM | 156 ng/mL | 1.67 h | 13 L/kg | 47.9% | 1.99 L/hrKg | 4.37 h | CS(=O)(=O)c1cccnc1N1CCc2c(ncnc2Nc2ccc(C(F)(F)F)cc2)C1 [Example 9, [7-(3-Methanesulfonyl-pyridin-2-yl)-5,6,7,8-tetrahydro-pyrido[3,4-d]pyrimidin-4-yl]-(4-trifluoromethyl-phenyl)-amine] | ++++ (compound exhibited 76% or greater inhibition of calcium ion influx induced by proton stimulation) |
| > 1000 nM | – | – | – | – | – | – | – | FC(F)(F)c1ccc(Nc2nccc3c2CCN(c2ncccc2Cl)C3)cc1 [Example 26, 6-(3-Chloropyridin-2-yl)-N-(4-(trifluoromethyl)phenyl)-5,6,7,8-tetrahydro-2,6-naphthyridin-1-amine] | + (compound exhibited 0-25% inhibition of calcium ion influx induced by proton stimulation) |
| < 100 nM | 101 to 500 nM | – | – | – | – | – | – | FC(F)(F)c1ccc(Nc2ncnc3c2CCN(c2ncccc2C(F)(F)F)C3)cc1 [Example 12, (4-Trifluoromethyl-phenyl)-[7-(3-trifluoromethyl-pyridin-2-yl)-5,6,7,8-tetrahydro-pyrido[3,4-d]pyrimidin-4-yl]-amine] | ++++ (compound exhibited 76% or greater inhibition of calcium ion influx induced by proton stimulation) |
| < 100 nM | < 100 nM | – | – | – | – | – | – | COc1nc2c(c(Nc3ccc(C(C)(C)C)cc3)n1)CCN(c1ncccc1Cl)C2 [Example 29, N-(4-tert-Butylphenyl)-7-(3-chloropyridin-2-yl)-5,6,7,8-tetrahydro-2-methoxypyrido[3,4-d]pyrimidin-4-amine] | ++++ (compound exhibited 76% or greater inhibition of calcium ion influx induced by proton stimulation) |
| 501 to 1000 nM | 101 to 500 nM | – | – | – | – | – | – | CN(C)c1nc2c(c(Nc3ccc(C(F)(F)F)cc3)n1)CCN(c1ncccc1Cl)C2 [Example 34, 7-(3-Chloropyridin-2-yl)-N^4-(4-(trifluoromethyl)phenyl)-5,6,7,8-tetrahydro-N^2N^2-dimethylpyrido[3,4-d]pyrimidine-2,4-diamine] | + (compound exhibited 0-25% inhibition of calcium ion influx induced by proton stimulation) |
| < 100 nM | < 100 nM | – | – | – | – | – | – | O=S(=O)(c1ccc(Nc2ncnc3c2CCN(c2ncccc2Cl)C3)cc1)C(F)(F)F [Example 22, 7-(3-Chloropyridin-2-yl)-N-(4-(trifluoromethylsulphonyl)phenyl)-5,6,7,8-tetrahydropyrido[3,4-d]pyrimidin-4-amine] | ++++ (compound exhibited 76% or greater inhibition of calcium ion influx induced by proton stimulation) |
| 101 to 500 nM | 501 to 1000 nM | – | – | – | – | – | – | CCOc1nc2c(c(Nc3ccc(C(F)(F)F)cc3)n1)CCN(c1ncccc1S(C)(=O)=O)C2 [Example 64, 2-Ethoxy-N-(4-(trifluoromethyl)phenyl)-5,6,7,8-tetrahydro-7-(3-(methylsulfonyl)pyridin-2-yl)pyrido[3,4-d]pyrimidin-4-amine] | +++ (compound exhibited 51-75% inhibition of calcium ion influx induced by proton stimulation) |
| 101 to 500 nM | – | 49.4 ng/mL | 3.33 h | 12.4 L/kg | 17.9% | 4.02 L/hrKg | 2.15 h | N#Cc1nc2c(c(Nc3ccc(C(F)(F)F)cc3)n1)CCN(c1ncccc1Cl)C2 [Example 37, 4-(4-(Trifluoromethyl)phenylamino)-7-(3-chloropyridin-2-yl)-5,6,7,8-tetrahydropyrido[3,4-d]pyrimidine-2-carbonitrile] | ++++ (compound exhibited 76% or greater inhibition of calcium ion influx induced by proton stimulation) |
